Like-named read-outs stand apart in the source and are kept apart here. Where only a bound is given, the exact number is not on record here.

The test system of data set [1] is A549 (non-small cell lung cancer) cells. Briefly: MTT cytotoxicity assay, A549. Type of data set: cell-based, human. Conditions: read-out: IC50 ± STDEV, A549. As for the experimental part: (§1) The parental MCF7 (breast cancer cell line), A549 (non-small cell lung cancer cell line), and human dermal fibroblast (HDF) (human dermal cell line) cells were obtained from the American Type Culture Collection (ATCC, Manassas, VA, United States). MCF7 and A549 cells were cultured in RPMI 1640 medium (EuroClone, Italy) supplemented with 10% (v/v) heat-inactivated fetal bovine serum (FBS) (EuroClone, Italy), 1% penicillin-streptomycin (EuroClone, Italy), and 2 mM L-glutamine.
(§2) The cytotoxic activity of the tested compounds were tested using MTT assay. […] Then, the cell viability was recored and IC50 values were calcualted. ([Mosmann, 1983]; [Nafie et al., 2020c]).

The subject of data set [2] is MCF-7 (breast cancer) cells. The experiment in a line: MTT cytotoxicity assay, MCF-7. Type of data set: cell-based, human. Particulars: read-out: IC50 ± STDEV, MCF-7. The method, then:
as §1, §2

Data set [3] has as its system HDFs (non-cancerous human dermal fibroblasts). The experiment in a line: MTT cytotoxicity assay, HDFs. Conditions: non-cancerous cells, average ±SD of four independent experiments, read-out: IC50 ± STDEV, HDFs. In kind it is cell-based. The method, then:
as §1, §2

[4] abbreviates: Homo sapiens, A549, average ±SD of four independent experiments.
Setting [5] is: Homo sapiens, MCF7, average ±SD of four independent experiments.
Setting [6] is: average ±SD of four independent experiments.

The compound `Nc1cc(-c2c[nH]c3ccccc23)nn1-c1nc(N2CCCCC2)nc(N2CCOCC2)n1` [Compound 3c, 3-(1H-Indol-3-yl)-1-(4-morpholino-6-(piperidin-1-yl)-1,3,5-triazin-2-yl)-1H-pyrazol-5-amine] came in with a melting point of 178 to 179 °C. In addition, in data set [1] (setting [4]), the IC50 amounted to 4.82 ± 0.29 µM. For the same compound, the 50% inhibitory concentration (IC50) in data set [2] (setting [5]) is 12.6 ± 1.03 µM. For the same compound, in data set [3] (Homo sapiens, Fibroblast), the half-maximal inhibitory concentration (IC50) came out at 6.82 ± 1.34 µM.
For `COc1ccc(Nc2nc(N3CCCCC3)nc(-n3nc(-c4c[nH]c5ccccc45)cc3N)n2)cc1` [Compound 3g, 4-(5-Amino-3-(1H-indol-3-yl)-1H-pyrazol-1-yl)-N-(4-methoxyphenyl)-6-(piperidin-1-yl)-1,3,5-triazin-2-amine], the IC50 in data set [1] (setting [4]) stood at 6.23 ± 0.48 µM; in data set [2] (setting [5]), 7.68 ± 0.21 µM; in data set [3] (Homo sapiens, Fibroblast), 4.36 ± 0.83 µM.
For `N#Cc1cnn(-c2nc(Nc3ccccc3)nc(N3CCOCC3)n2)c1-c1c[nH]c2ccccc12` [Compound 5h, 5-(1H-Indol-3-yl)-1-(4-morpholino-6-(phenylamino)-1,3,5-triazin-2-yl)-1H-pyrazole-4-carbonitrile], the melting point fell in the range of 314 to 316 °C. Further, in data set [1] (setting [4]), the IC50 came out at 7.62 ± 0.85 µM. Moreover, the IC50 in data set [3] (Homo sapiens, Fibroblast) stood at 23.8 ± 3.37 µM.
`COc1ccc(Nc2nc(N3CCCCC3)nc(-n3ncc(C#N)c3-c3c[nH]c4ccccc34)n2)cc1` [Compound 5g, 5-(1H-Indol-3-yl)-1-(4-((4-methoxyphenyl)amino)-6-(piperidin-1-yl)-1,3,5-triazin-2-yl)-1H-pyrazole-4-carbonitrile]: the melting point is 273 to 275 °C. Also, the IC50 in data set [1] (setting [4]) was above 500 µM. Also, in data set [2] (setting [5]), the IC50 is above 500 µM. Further, the concentration for half-maximal inhibition (IC50) in data set [3] (Homo sapiens, Fibroblast) was above 500 µM.
On to `N#Cc1cnn(-c2nc(N3CCOCC3)nc(N3CCOCC3)n2)c1-c1c[nH]c2ccccc12` [Compound 5b, 1-(4,6-Dimorpholino-1,3,5-triazin-2-yl)-5-(1H-indol-3-yl)-1H-pyrazole-4 carbonitrile], for which the melting point is 328 to 330 °C. In addition, in data set [1] (setting [4]), the half-inhibitory concentration (IC50) is above 500 µM. The concentration for half-maximal inhibition (IC50) in data set [2] (setting [5]) was above 500 µM. Further, the half-maximal inhibitory concentration (IC50) in data set [3] (Homo sapiens, Fibroblast) is above 500 µM.
Turning to “2-(4,6-Di (piperidin-1-yl)-1,3,5-triazin-2-yl)-3-(1H-indol-3-yl)-2,3-dihydro-1H-pyrazole-4-carbonitrile [Compound 5a]”, the results for the half-inhibitory concentration (IC50) in data set [1] (setting [6]), in data set [2] (setting [6]) and in data set [3] were 66.1 ± 5.71 µM, 65.2 ± 1.43 µM and above 500 µM, respectively.
In the case of `N#Cc1cnn(-c2nc(Nc3ccc(Br)cc3)nc(N3CCOCC3)n2)c1-c1c[nH]c2ccccc12` [Compound 5j, 1-(4-((4-Bromophenyl)amino)-6-morpholino-1,3,5-triazin-2-yl)-5-(1H-indol-3-yl)-1H-pyrazole-4-carbonitrile], the 50% inhibitory concentration (IC50) was 23.2 ± 2.27 µM in data set [1] (setting [4]); 51.1 ± 10.3 µM in data set [2] (setting [5]); above 500 µM in data set [3] (Homo sapiens, Fibroblast).
Take `COc1cccc2c1C(=O)c1c(O)c3c(c(O)c1C2=O)C[C@@](O)(C(=O)CO)C[C@@H]3O[C@H]1C[C@H](N)[C@H](O)[C@H](C)O1` [Doxorubicin, reference compound]: the IC50 in data set [1] (setting [4]) stood at 0.28 ± 0.11 µM; in data set [2] (setting [5]) it was 0.06 ± 0.02 µM; in data set [3] (Homo sapiens, Fibroblast), 0.42 ± 0.27 µM.
`N#Cc1cnn(-c2nc(Nc3ccccc3)nc(N3CCCCC3)n2)c1-c1c[nH]c2ccccc12` [Compound 5d, 5-(1H-Indol-3-yl)-1-(4-(phenylamino)-6-(piperidin-1-yl)-1,3,5-triazin-2-yl)-1H-pyrazole-4-carbonitrile] displayed a melting point of 298 to 299 °C. In addition, the IC50 in data set [1] (setting [4]) amounted to 10.3 ± 2.64 µM. In addition, the IC50 in data set [2] (setting [5]) was 16.8 ± 0.78 µM. The IC50 in data set [3] (Homo sapiens, Fibroblast) worked out at 115 ± 14.8 µM.
In turn, `Nc1cc(-c2c[nH]c3ccccc23)nn1-c1nc(Nc2ccc(Br)cc2)nc(N2CCCCC2)n1` [Compound 3f, 4-(5-Amino-3-(1H-indol-3-yl)-1H-pyrazol-1-yl)-N-(4-bromophenyl)-6-(piperidin-1-yl)-1,3,5-triazin-2-amine] displayed a melting point of 271 to 274 °C. Moreover, in data set [1] (setting [4]), the concentration for half-maximal inhibition (IC50) amounted to 14.8 ± 0.83 µM. In addition, the IC50 in data set [2] (setting [5]) turned out to be 13.2 ± 0.55 µM. Moreover, the half-maximal inhibitory concentration (IC50) in data set [3] (Homo sapiens, Fibroblast) was 6.8 ± 1.02 µM.
Compound `COc1ccc(Nc2nc(N3CCOCC3)nc(-n3ncc(C#N)c3-c3c[nH]c4ccccc34)n2)cc1` [Compound 5k, 5-(1H-Indol-3-yl)-1-(4-((4-methoxyphenyl)amino)-6-morpholino-1,3,5-triazin-2-yl)-1H-pyrazole-4-carbonitrile] registered a melting point of 293 to 295 °C. Besides, in data set [1] (setting [4]), the concentration for half-maximal inhibition (IC50) was above 500 µM. The IC50 in data set [2] (setting [5]) was above 500 µM. In addition, the IC50 in data set [3] (Homo sapiens, Fibroblast) was above 500 µM.
In turn, `Nc1cc(-c2c[nH]c3ccccc23)nn1-c1nc(Nc2ccc(Cl)cc2)nc(N2CCCCC2)n1` [Compound 3e, 4-(5-Amino-3-(1H-indol-3-yl)-1H-pyrazol-1-yl)-N-(4-chlorophenyl)-6-(piperidin-1-yl)-1,3,5-triazin-2-amine] registered a melting point of 295 to 296 °C. Also, the concentration for half-maximal inhibition (IC50) in data set [1] (setting [4]) was 9.57 ± 1.26 µM. In addition, the IC50 in data set [2] (setting [5]) worked out at 15.2 ± 0.74 µM. In addition, the half-maximal inhibitory concentration (IC50) in data set [3] (Homo sapiens, Fibroblast) was 11.2 ± 0.69 µM.
Regarding `Nc1cc(-c2c[nH]c3ccccc23)nn1-c1nc(N2CCOCC2)nc(N2CCOCC2)n1` [Compound 3b, 1-(4,6-Dimorpholino-1,3,5-triazin-2-yl)-3-(1H-indol-3-yl)-1H-pyrazol-5-amine], the melting point lay within 188 to 189 °C. Moreover, the 50% inhibitory concentration (IC50) in data set [1] (setting [4]) worked out at 3.08 ± 1.27 µM. For the same compound, in data set [2] (setting [5]), the IC50 amounted to 11.7 ± 1.77 µM. For the same compound, the half-inhibitory concentration (IC50) in data set [3] (Homo sapiens, Fibroblast) was found to be 4.47 ± 1.43 µM.
With `N#Cc1cnn(-c2nc(N3CCCCC3)nc(N3CCOCC3)n2)c1-c1c[nH]c2ccccc12` [Compound 5c, 5-(1H-Indol-3-yl)-1-(4-morpholino-6-(piperidin-1-yl)-1,3,5-triazin-2-yl)-1H-pyrazol4-carbonitrile], the 50% inhibitory concentration (IC50) in data set [1] (setting [4]) is 223 ± 88.3 µM; in data set [2] (setting [5]), 152 ± 50.1 µM; in data set [3] (Homo sapiens, Fibroblast), 537 ± 71.6 µM.
Turning to `Nc1cc(-c2c[nH]c3ccccc23)nn1-c1nc(Nc2ccccc2)nc(N2CCCCC2)n1` [Compound 3d, 4-(5-Amino-3-(1H-indol-3-yl)-1H-pyrazol-1-yl)-N-phenyl-6-(piperidin-1-yl)-1,3,5-triazin-2-amine], the half-maximal inhibitory concentration (IC50) in data set [1] (setting [4]) turned out to be 10.6 ± 2.88 µM; in data set [2] (setting [5]) it was 11.7 ± 4.43 µM; in data set [3] (Homo sapiens, Fibroblast), 22.9 ± 5.2 µM.
For the compound `Nc1cc(-c2c[nH]c3ccccc23)nn1-c1nc(N2CCCCC2)nc(N2CCCCC2)n1` [Compound 3a, 1-(4,6-Di (piperidin-1-yl)-1,3,5-triazin-2-yl)-3-(1H-indol-3-yl)-1H-pyrazol-5-amine], the melting point was 288 to 290 °C. Further, the IC50 in data set [1] (setting [4]) is above 500 µM. Moreover, the IC50 in data set [2] (setting [5]) is above 500 µM. In data set [3] (Homo sapiens, Fibroblast), the IC50 is above 500 µM.
For `N#Cc1cnn(-c2nc(Nc3ccc(Cl)cc3)nc(N3CCCCC3)n2)c1-c1c[nH]c2ccccc12` [Compound 5e, 1-(4-((4-Chlorophenyl)amino)-6-(piperidin-1-yl)-1,3,5-triazin-2-yl)-5-(1H-indol-3-yl)-1H-pyrazole-4-carbonitrile], the half-maximal inhibitory concentration (IC50) in data set [1] (setting [4]) is above 500 µM; in data set [2] (setting [5]), above 500 µM; in data set [3] (Homo sapiens, Fibroblast), above 500 µM.
As for `COc1ccc(Nc2nc(N3CCOCC3)nc(-n3nc(-c4c[nH]c5ccccc45)cc3N)n2)cc1` [Compound 3k, 4-(5-Amino-3-(1H-indol-3-yl)-1H-pyrazol-1-yl)-N-(4-methoxyphenyl)-6-morpholino-1,3,5-triazin-2-amine], the IC50 stood at 3.64 ± 1.26 µM in data set [1] (setting [4]); 4.11 ± 0.5 µM in data set [2] (setting [5]); 8.9 ± 1.07 µM in data set [3] (Homo sapiens, Fibroblast).
Turning to `N#Cc1cnn(-c2nc(Nc3ccc(Br)cc3)nc(N3CCCCC3)n2)c1-c1c[nH]c2ccccc12` [Compound 5f, 1-(4-((4-Bromophenyl)amino)-6-(piperidin-1-yl)-1,3,5-triazin-2-yl)-5-(1H-indol-3-yl)-1H-pyrazole-4-carbonitrile], the IC50 in data set [1] (setting [4]) is above 500 µM; in data set [2] (setting [5]), above 500 µM; in data set [3] (Homo sapiens, Fibroblast), above 500 µM.
As for `N#Cc1cnn(-c2nc(Nc3ccc(Cl)cc3)nc(N3CCOCC3)n2)c1-c1c[nH]c2ccccc12` [Compound 5i, 1-(4-((4-Chlorophenyl)amino)-6-morpholino-1,3,5-triazin-2-yl)-5-(1H-indol-3-yl)-1H-pyrazole-4-carbonitrile], the IC50 in data set [1] (setting [4]) is 44.5 ± 19.2 µM; in data set [2] (setting [5]), 59.8 ± 0.81 µM; in data set [3] (Homo sapiens, Fibroblast), above 500 µM.

One may read the IC50 as the concentration that inhibits the measured activity by half. In general, melting point refers to the temperature, or range, at which the solid turns liquid.

The record behind these values is paper PMC9732672, “Pyrazolyl-s-triazine with indole motif as a novel of epidermal growth factor receptor/cyclin-dependent kinase 2 dual inhibitors” (Frontiers in Chemistry, 2022).
